Results published in US20080287491A1, “Tetrahydroquinoline Derivative for Treating Nicotine Craving” (priority 2003, published 2008).
“Also recorded” adds a separate entry of the source. Where a name gives a salt, the structure may show the parent alone.

Key:
[1] = tested on: nicotine craving in smokers abstinent for 72 hours from cigarettes; experiment: QSU-Brief nicotine craving questionnaire, repeated-dose three-period crossover enforced abstinence study; format: in vivo, human; conditions: 31 smoker volunteers; 120 mg/day intravenously for 7 days; 72 hours of abstinence from Day 5; FIG. 1
Description: The ability of the compound of formula (I) or pharmaceutically acceptable salts thereof to reduce nicotine craving in smokers was measured by means of self-administered questionnaires on Smoking Craving/Urge-Brief (QSU-Brief), as described by Tiffany S T, & Christen A G Cox L S, Nicotine and Tobacco Research, 3: 7-16, 2001. The QSU-Brief is a specific craving scale that consists of 10 items scored on a scale from 1 to 7. The higher average score corresponds to the higher intensity of nicotine craving. The QSU-Brief has 2 factors: factor 1 refers to the anticipation of pleasure from smoke and factor 2 refers to anticipation of relief from negative affects of abstinence. A further study investigated nicotine craving in smokers abstinent for 72 hours from cigarettes (enforced abstinence model) receiving either repeated administrations of the compound of formula (I) as meglumine salt (Compound) or placebo. […] Each subject was exposed to 3 different experimental conditions: 1) Compound (120 mg/day) was administered intravenously for 7 days starting on Day 1 and quitted smoking abruptly on Day 5 for 72 hours (i.e. non-smoking period;) 2) Placebo was administered intravenously for 7 days starting on Day 1 and quitted smoking abruptly on Day 5 for 72 hours (i.e. non-smoking period;) 3) allowed to smoke for 7 consecutive days (i.e. free smoking period). […]

[2] = tested on: nicotine craving in smokers abstinent for 3 days from cigarettes; experiment: QSU-Brief nicotine craving questionnaire, single-dose enforced abstinence study; format: in vivo, human; conditions: single dose 120 mg iv
Description: The ability of the compound of formula (I) or pharmaceutically acceptable salts thereof to reduce nicotine craving in smokers was measured by means of self-administered questionnaires on Smoking Craving/Urge-Brief (QSU-Brief), as described by Tiffany S T, & Christen A G Cox L S, Nicotine and Tobacco Research, 3: 7-16, 2001. The QSU-Brief is a specific craving scale that consists of 10 items scored on a scale from 1 to 7. The higher average score corresponds to the higher intensity of nicotine craving. The QSU-Brief has 2 factors: factor 1 refers to the anticipation of pleasure from smoke and factor 2 refers to anticipation of relief from negative affects of abstinence. The study investigated nicotine craving in smokers abstinent for 3 days from cigarettes (enforced abstinence model) receiving either a single dose 120 mg iv of the compound of formula (I) as meglumine salt (Compound) or a single dose of placebo. Self-administered questionnaires (QSU-Brief), were administered at pre-dose and 3, 6 and 12 hours post dose to evaluate craving.

Question: How did the “Nicotine craving level (QSU-Brief) compared with placebo” value [1] turn out when `O=C(O)[C@H]1C/C(=C2/CCN(c3ccccc3)C2=O)c2ccc(Cl)cc2N1` [Compound, (2R,4E)-7-chloro-4-(2-oxo-1-phenyl-3-pyrrolidinylidene)-1,2,3,4-tetrahydro-2-quinolinecarboxylic acid, (2R,3R,4R,5S)-6-methylamino-hexane-1,2,3,4,5-pentanol (meglumine) salt (form 2)] was run?
Answer: showed reduction in nicotine craving; also recorded: reduced the nicotine craving level

Question: And the “QSU-Brief: Craving Factor 2 (average during abstinence)” value ([2]; QSU-Brief items scored 1 to 7, pre-dose and 3, 6 and 12 hours post dose, placebo 4.0)?
Answer: 3.6

Question: And the “Average craving factor 2 compared with placebo” value ([2]; versus abstinent smokers receiving placebo)?
Answer: significant average lower craving factor 2
